Data on 14 compounds can be found in ChEMBL document CHEMBL1140631, “Carbonic anhydrases as targets for medicinal chemistry” (Bioorg Med Chem, 2007).

The target of this test is T1, Carbonic anhydrase 4 (Bos taurus, UniProt Q95323).
T1 sequence (Q95323 whole entry): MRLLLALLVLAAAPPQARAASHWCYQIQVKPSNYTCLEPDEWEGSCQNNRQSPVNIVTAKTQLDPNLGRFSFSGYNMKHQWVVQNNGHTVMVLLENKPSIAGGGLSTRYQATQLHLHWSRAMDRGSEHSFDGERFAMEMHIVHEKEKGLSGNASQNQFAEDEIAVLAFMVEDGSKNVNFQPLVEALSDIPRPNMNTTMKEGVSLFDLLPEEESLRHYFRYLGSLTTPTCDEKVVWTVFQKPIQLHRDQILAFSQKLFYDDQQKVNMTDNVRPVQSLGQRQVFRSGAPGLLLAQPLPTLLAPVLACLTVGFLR
One may read the Ki as a measure of affinity in units of concentration, obtained from inhibition or displacement. A lower Ki goes with higher affinity. `NC(=O)Nc1ccc(S(=O)(=O)Nc2ccc(S(N)(=O)=O)cc2)cc1` displayed a Ki of 20 nM. The compound `NS(=O)(=O)c1ccc(CC/N=C/c2ccncc2)cc1` had a Ki of 12 nM. To `NS(=O)(=O)c1nnc(NC(=O)Nc2ccc(Cl)c(Cl)c2)s1` belongs 8 nM; to `NS(=O)(=O)c1ccc(CC/N=C/c2cccc([N+](=O)[O-])c2)cc1`, 140 nM; to `Cn1cccc1/C=N/CCc1ccc(S(N)(=O)=O)cc1`, 8 nM. The value for `NS(=O)(=O)c1ccc(CC/N=C/c2ccc[nH]2)cc1` was 10 nM; that for `NS(=O)(=O)c1ccc(CCNC(=S)Nc2ccccc2)cc1` was 70 nM; that for `NS(=O)(=O)c1ccc(CCNC(=S)NC(=O)Nc2ccc(Cl)c(Cl)c2)cc1` was 24 nM. In the case of `NC(=O)Nc1ccc(S(=O)(=O)Nc2cccc(S(N)(=O)=O)c2)cc1`, the affinity corresponds to a Ki of 25 nM.

Turning to `Cc1ccc(S(=O)(=O)NC(=O)Nc2c(S(N)(=O)=O)cc(S(N)(=O)=O)c(Cl)c2Cl)cc1`, affinity was put at a Ki of 14 nM.

`NS(=O)(=O)c1ccc(CC/N=C/c2ccccc2OC(=O)NS(=O)(=O)c2ccc(Cl)cc2)cc1` registered a Ki of 160 nM. `Cn1cccc1/C=N/Cc1ccc(S(N)(=O)=O)cc1`: the Ki stood at 10 nM. Regarding `Cc1ccc(S(=O)(=O)NC(=O)Oc2ccccc2/C=N/CCc2ccc(S(N)(=O)=O)cc2)cc1`, the Ki amounted to 120 nM. Compound `NS(=O)(=O)c1ccc(CC/N=C/c2ccccc2OC(=O)NS(=O)(=O)c2ccccc2)cc1` had a Ki of 11 nM.
